Measured values from US10898481B2 (priority 2018, dated 2021).
Where two headings read alike, the source gives them in different places.

Columns and labels:
[1] = target: hA1 (Homo sapiens (Human), UniProt P30542); settings: hA1 membrane, [3H]-DPCPX; read-out: Binding Affinity (IC50 nM) hA1
Source text: (§1) The empty boxes in the tables below indicate data not collected yet.

[2] = target: hA2a (Homo sapiens (Human), UniProt P29274); experiment: Radioligand binding to hA2a membrane with [3H]-CGS21680; settings: read-out: Binding Affinity (IC50 nM) hA2a
hA2a, sequence (P29274 whole entry): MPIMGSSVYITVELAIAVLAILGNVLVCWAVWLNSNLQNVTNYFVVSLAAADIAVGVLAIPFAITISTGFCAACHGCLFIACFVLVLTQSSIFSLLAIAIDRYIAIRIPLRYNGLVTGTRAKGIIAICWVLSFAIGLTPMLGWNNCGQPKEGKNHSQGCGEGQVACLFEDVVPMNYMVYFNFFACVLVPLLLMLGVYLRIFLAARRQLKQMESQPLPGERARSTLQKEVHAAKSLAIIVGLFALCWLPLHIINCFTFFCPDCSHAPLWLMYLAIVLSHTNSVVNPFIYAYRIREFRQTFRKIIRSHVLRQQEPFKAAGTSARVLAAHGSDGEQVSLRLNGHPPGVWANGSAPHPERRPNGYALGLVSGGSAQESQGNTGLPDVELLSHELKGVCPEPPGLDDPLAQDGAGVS
Source text: as §1

[3] = target: hADORA1/CHO (hA1 expressing) cells (Homo sapiens (Human), UniProt P30542); experiment: cell-based; settings: 10 μM adenosine
hADORA1/CHO (hA1 expressing) cells, sequence (P30542 whole entry): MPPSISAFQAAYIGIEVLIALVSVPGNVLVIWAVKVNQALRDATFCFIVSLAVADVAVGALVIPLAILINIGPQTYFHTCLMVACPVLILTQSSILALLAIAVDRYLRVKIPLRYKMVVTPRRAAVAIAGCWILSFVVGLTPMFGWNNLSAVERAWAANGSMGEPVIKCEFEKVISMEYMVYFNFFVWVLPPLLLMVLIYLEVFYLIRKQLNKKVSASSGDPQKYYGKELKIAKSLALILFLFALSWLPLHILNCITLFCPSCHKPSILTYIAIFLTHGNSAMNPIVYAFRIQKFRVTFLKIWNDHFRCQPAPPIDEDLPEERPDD

[4] = target: hA2a/CHO (Homo sapiens (Human), UniProt P29274); experiment: cAMP inhibition assay in hA2a/CHO cells, 10 μM adenosine; assay type: cell-based; settings: read-out: cAMP & FLIPR IC50 (nM) hA2a;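 also: compounds added to cells 30 min ahead of adenosine, then a further 30 min at 37 °C with adenosine before cAMP detection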
hA2a/CHO, sequence (P29274 whole entry): as the sequence (P29274 whole entry) above

[5] = target: hA2b/CHO (Homo sapiens (Human), UniProt P29275); experiment: cAMP inhibition assay in hA2b/CHO cells, 10 μM adenosine; assay type: cell-based; settings: read-out: cAMP & FLIPR IC50 (nM) hA2b;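 also: cells exposed to compound 30 min at 37 °C, then stimulated with adenosine a further 30 min, cAMP read after 60 min at room temperature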
hA2b/CHO, sequence (P29275 whole entry): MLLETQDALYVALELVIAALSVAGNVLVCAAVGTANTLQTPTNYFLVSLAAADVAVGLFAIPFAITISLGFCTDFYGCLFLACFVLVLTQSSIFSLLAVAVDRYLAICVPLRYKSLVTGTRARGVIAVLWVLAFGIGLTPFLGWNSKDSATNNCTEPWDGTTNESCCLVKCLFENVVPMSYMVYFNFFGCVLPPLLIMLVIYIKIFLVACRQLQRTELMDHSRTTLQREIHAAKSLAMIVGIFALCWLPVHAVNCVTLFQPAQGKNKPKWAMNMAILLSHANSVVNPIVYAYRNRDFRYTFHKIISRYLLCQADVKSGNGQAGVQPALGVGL

[6] = target: mA2a/CHO (Mus musculus (Mouse), UniProt Q60613); experiment: cAMP inhibition assay in mA2a/CHO cells, 10 μM adenosine; assay type: cell-based; settings: read-out: cAMP & FLIPR IC50 (nM) mA2a;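 also: compounds preincubated 30 min at 37 °C before the adenosine challenge, then 30 min further stimulation, readout after 60 min detection reagent incubation at room temperature in 384-well plates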
mA2a/CHO, sequence (Q60613 whole entry): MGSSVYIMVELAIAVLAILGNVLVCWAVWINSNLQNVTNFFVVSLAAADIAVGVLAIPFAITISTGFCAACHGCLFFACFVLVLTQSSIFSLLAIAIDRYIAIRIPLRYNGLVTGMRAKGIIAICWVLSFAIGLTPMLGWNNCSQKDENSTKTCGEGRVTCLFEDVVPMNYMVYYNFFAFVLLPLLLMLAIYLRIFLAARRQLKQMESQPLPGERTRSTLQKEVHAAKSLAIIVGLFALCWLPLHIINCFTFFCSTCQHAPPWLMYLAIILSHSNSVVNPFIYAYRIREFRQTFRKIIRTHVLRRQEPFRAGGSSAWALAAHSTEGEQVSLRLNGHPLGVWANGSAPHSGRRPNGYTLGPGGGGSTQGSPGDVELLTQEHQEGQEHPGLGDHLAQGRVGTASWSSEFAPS

[7] = target: hA3/CHO (Homo sapiens (Human), UniProt P0DMS8); experiment: cell-based
hA3/CHO, sequence (P0DMS8 whole entry): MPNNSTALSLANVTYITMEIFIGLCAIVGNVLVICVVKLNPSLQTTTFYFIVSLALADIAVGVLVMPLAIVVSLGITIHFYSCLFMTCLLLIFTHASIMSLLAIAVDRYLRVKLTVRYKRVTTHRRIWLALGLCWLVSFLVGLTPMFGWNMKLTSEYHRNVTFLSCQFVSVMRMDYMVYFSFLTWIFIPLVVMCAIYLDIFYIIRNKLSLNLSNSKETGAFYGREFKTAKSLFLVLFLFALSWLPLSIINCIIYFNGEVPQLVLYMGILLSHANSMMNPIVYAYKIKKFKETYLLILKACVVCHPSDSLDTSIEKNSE
Experimental: hA2a/CHO, hA2b/CHO, hA3/CHO and mA2a/CHO (Genscript) were plated at 5×10^3 cells/well into 384-well polystyrene plates at the day of experiment. Compounds were pre-incubated with cells for 30 min at 37° C., 5% CO2. Then 10 μM adenosine was added to the cells and incubated for 30 min at 37° C., 5% CO2. Detection reagent (CISBIO) was added and the plates were incubated for 60 min at room temperature. The signal was captured by Envision.

[8] = FLIPR inhibition, read-out: cAMP & FLIPR IC50 (nM) hA1
[9] = cAMP & FLIPR IC50 (nM) hA1, FLIPR inhibition

hA1, sequence (P30542 whole entry): as the sequence (P30542 whole entry) above

SMILES	IC50 [1]	IC50 [2]	IC50 [3, 8]	IC50 [4]	IC50 [5]	IC50 [6]	IC50 [7]	IC50 [3, 9]
CN(C)c1cccnc1CNC(=O)c1nc(-c2ccc(=O)n(C)c2)c(-c2ncco2)nc1N [Example 16, 3-amino-N-((3-(dimethylamino)pyridin-2-yl)methyl)-6-(1-methyl-6-oxo-1,6-dihydropyridin-3-yl)-5-(oxazol-2-yl)pyrazine-2-carboxamide]	15 nM	3.9 nM	32 nM	5.3 nM	336 nM	8.3 nM	–	–
Cn1cc(-c2nc(C(=O)NCc3c(F)cccc3F)c(N)nc2-c2ccc(F)cc2)ccc1=O [Example 29, 3-amino-N-[(2,6-difluorophenyl)methyl]-5-(4-fluorophenyl)-6-(1-methyl-6-oxo-1,6-dihydropyridin-3-yl)pyrazine-2-carboxamide]	–	2.3 nM	66 nM	6.8 nM	103 nM	60 nM	≥ 10000 nM	–
Nc1nc(-c2ncco2)c(-c2ccc3nncn3c2)nc1C(=O)NCc1c(F)cccc1F [Example 34, 6-([1,2,4]triazolo[4,3-a]pyridin-6-yl)-3-amino-N-(2,6-difluorobenzyl)-5-(oxazol-2-yl)pyrazine-2-carboxamide]	–	3.7 nM	10000 nM	63 nM	330 nM	192 nM	≥ 10000 nM	–
Cn1cc(-c2nc(C(=O)NCc3c(F)cccc3F)c(N)nc2-n2nccn2)ccc1=O [Example 35, 3-amino-N-(2,6-difluorobenzyl)-6-(1-methyl-6-oxo-1,6-dihydropyridin-3-yl)-5-(2H-1,2,3-triazol-2-yl)pyrazine-2-carboxamide]	–	3.2 nM	112 nM	15 nM	203 nM	43 nM	≥ 10000 nM	–
Nc1nc(-c2ncco2)c(-c2ccc3nccn3c2)nc1C(=O)NCc1ncccc1F [Example 43, 3-amino-N-((3-fluoropyridin-2-yl)methyl)-6-(imidazo[1,2-a]pyridin-6-yl)-5-(oxazol-2-yl)pyrazine-2-carboxamide]	245 nM	21 nM	–	49 nM	159 nM	240 nM	–	10000 nM
Nc1nc(-c2ncco2)c(-c2ccc3[nH]cnc3c2)nc1C(=O)NCc1ncccc1F [Example 47, 3-amino-6-(1H-1,3-benzodiazol-5-yl)-N-[(3-fluoropyridin-2-yl)methyl]-5-(1,3-oxazol-2-yl)pyrazine-2-carboxamide]	696 nM	–	–	–	–	–	–	10000 nM
Nc1cccc(CNC(=O)c2nc(-c3ccc4nccn4c3)c(-c3ncco3)nc2N)n1 [Example 48, 3-amino-N-[(6-aminopyridin-2-yl)methyl]-6-[imidazo[1,2-a]pyridin-6-yl]-5-(1,3-oxazol-2-yl) pyrazine-2-carboxamide]	67 nM	3.1 nM	7160 nM	19 nM	84 nM	256 nM	–	–
Cn1cc(-c2nc(C(=O)NCc3nc(N)ccc3F)c(N)nc2-c2ncco2)ccc1=O [Example 49, 3-amino-N-((6-amino-3-fluoropyridin-2-yl)methyl)-6-(1-methyl-6-oxo-1,6-dihydropyridin-3-yl)-5-(oxazol-2-yl)pyrazine-2-carboxamide]	117 nM	–	–	–	–	–	–	1710 nM
Cn1cnc2ccc(-c3nc(C(=O)NCc4ncccc4F)c(N)nc3-c3ncco3)cc21 [Example 51, 3-amino-N-((3-fluoropyridin-2-yl)methyl)-6-(3-methyl-3H-benzo[d]imidazol-5-yl)-5-(oxazol-2-yl)pyrazine-2-carboxamide]	78 nM	2.1 nM	2500 nM	1.2 nM	5.5 nM	9.6 nM	–	–
COc1ccccc1CNC(=O)c1nc(-c2cc(C)nc(C)c2)c(-c2ccc(C)o2)nc1N [Example 61, 3-amino-6-(2,6-dimethylpyridin-4-yl)-N-(2-methoxybenzyl)-5-(5-methylfuran-2-yl)pyrazine-2-carboxamide]	52 nM	7.9 nM	–	0.6 nM	≥ 10000 nM	6 nM	–	–
Cn1cc(-c2nc(C(=O)NC(CO)c3c(F)cccc3F)c(N)nc2-c2ncco2)ccc1=O (centres unmarked) [Example 98, 3-amino-N-(1-(2,6-difluorophenyl)-2-hydroxyethyl)-6-(1-methyl-6-oxo-1,6-dihydropyridin-3-yl)-5-(oxazol-2-yl) pyrazine-2-carboxamide]	10 nM	9.3 nM	–	21 nM	126 nM	64 nM	–	70 nM
Nc1nc(-c2ncco2)c(-c2ccc3ncnn3c2)nc1C(=O)NCc1ncccc1F [Example 100, 6-([1,2,4]triazolo[1,5-a]pyridin-6-yl)-3-amino-N-((3-fluoropyridin-2-yl)methyl)-5-(oxazol-2-yl)pyrazine-2-carboxamide]	685 nM	8.4 nM	–	76 nM	312 nM	4530 nM	–	10000 nM
Cc1cnc2ccc(-c3nc(C(=O)NCc4ncccc4F)c(N)nc3-c3ncco3)cn12 [Example 101, 3-amino-N-((3-fluoropyridin-2-yl)methyl)-6-(3-methylimidazo[1,2-a]pyridin-6-yl)-5-(oxazol-2-yl)pyrazine-2-carboxamide]	5.6 nM	–	45 nM	–	–	–	–	–
Cc1cnc2ccc(-c3nc(C(=O)NC[C@H]4CCCO4)c(N)nc3-c3ncco3)cn12 [Example 126, (R)-3-amino-6-(3-methylimidazo[1,2-a]pyridin-6-yl)-5-(oxazol-2-yl)-N-((tetrahydrofuran-2-yl)methyl)pyrazine-2-carboxamide]	78 nM	1.4 nM	–	1.6 nM	77 nM	7 nM	–	1230 nM
Cc1cnc2ccc(-c3nc(C(=O)NC[C@@H]4CCCO4)c(N)nc3-c3ncco3)cn12 [Example 127, (S)-3-amino-6-(3-methylimidazo[1,2-a]pyridin-6-yl)-5-(oxazol-2-yl)-N-((tetrahydrofuran-2-yl)methyl)pyrazine-2-carboxamide]	68 nM	3.1 nM	–	1.7 nM	99 nM	14 nM	–	2420 nM
Cc1cnc2ccc(-c3nc(C(=O)NC(C)C)c(N)nc3-c3ncco3)cn12 [Example 133, 3-amino-N-isopropyl-6-(3-methyl-imidazo[1,2-a]pyridin-6-yl)-5-(oxazol-2-yl)pyrazine-2-carboxamide]	271 nM	2.7 nM	–	5.9 nM	554 nM	19 nM	–	10000 nM
Cc1cnc2ccc(-c3nc(C(=O)NC[C@H]4CCOC4)c(N)nc3-c3ncco3)cn12 [Example 136, (R)-3-amino-6-(3-methylimidazo[1,2-a]pyridin-6-yl)-5-(oxazol-2-yl)-N-((tetrahydrofuran-3-yl)methyl)pyrazine-2-carboxamide]	182 nM	1.7 nM	–	1.8 nM	512 nM	27 nM	–	10000 nM
Cc1cnc2ccc(-c3nc(C(=O)NC[C@@H]4CCOC4)c(N)nc3-c3ncco3)cn12 [Example 137, (S)-3-amino-6-(3-methylimidazo[1,2-a]pyridin-6-yl)-5-(oxazol-2-yl)-N-((tetrahydrofuran-3-yl)methyl)pyrazine-2-carboxamide]	195 nM	3.9 nM	–	1.7 nM	464 nM	34 nM	–	10000 nM
COCCNC(=O)c1nc(-c2ccc3ncc(C)n3c2)c(-c2ncco2)nc1N [Example 147, 3-amino-N-(2-methoxyethyl)-6-(3-methylimidazo[1,2-a]pyridin-6-yl)-5-(oxazol-2-yl)pyrazine-2-carboxamide]	108 nM	5.6 nM	2380 nM	3.8 nM	134 nM	15 nM	–	–
COC[C@H](C)NC(=O)c1nc(-c2ccc3ncc(C)n3c2)c(-c2ncco2)nc1N [Example 160, (S)-3-amino-N-(1-methoxypropan-2-yl)-6-(3-methylimidazo[1,2-a]pyridin-6-yl)-5-(oxazol-2-yl)pyrazine-2-carboxamide]	333 nM	3.15 nM	4860 nM	0.26 nM	163 nM	0.89 nM	–	–
Cc1cnc2ccc(-c3nc(C(=O)NC4CCC4)c(N)nc3-c3ncco3)cn12 [Example 218, 3-amino-N-cyclobutyl-6-(3-methylimidazo[1,2-a]pyridin-6-yl)-5-(oxazol-2-yl)pyrazine-2-carboxamide]	475 nM	9.1 nM	> 10000 nM	1.5 nM	359 nM	28 nM	–	–
